Source: ChEMBL document CHEMBL3228010, “Potential antitumor agents. 29. Quantitative structure-activity relationships for the antileukemic bisquaternary ammonium heterocycles” (J Med Chem, 1979)
Values joined by “and” are separate entries in the source; they are usually repeats but may differ in a detail not shown here. Equal values may be shown once.

How the values were obtained:
L1210 [1] = assay: Antitumor activity against mouse L1210 cells […] in ip dosed C3H X DBA2 F1 hybrid mouse on day 0 and dosed at LD10 level once daily on days 1 to 5 assessed as increase in life span relative to control; type: functional
Bos taurus = species on record: Bos taurus; assay: Displacement of ethidium from calf thymus DNA by fluorimetric method
Mus musculus = assay: Toxicity in ip dosed C3H X DBA2 F1 hybrid mouse […] with mouse L1210 cells on day 0 and dosed once daily on days 1 to 5 measured after 50 days; type: organism-based; conditions: in vivo, 1200 h
L1210 [2] = assay: Antitumor activity against mouse L1210 cells […] in ip dosed C3H X DBA2 F1 hybrid mouse on day 0 and dosed once daily on days 1 to 5 assessed as increase in life span relative to control; type: functional
[3] = Lipophilic-hydrophilic balance, Rm of the compound by partition chromatography; type: physicochemical
[4] = Displacement of ethidium from poly[d(A)]-poly[d(T)] DNA (unknown origin) by fluorimetric method
[5] = Displacement of ethidium from poly[d(A-T)]-poly[d(A-T)] DNA by fluorimetric method
[6] = Displacement of ethidium from poly[d(G-C)]-poly[d(G-C)] DNA (unknown origin) by fluorimetric method

Compound | log(ILSmax) (L1210 [1]) | C50 (Bos taurus) | LD10 (Mus musculus) | D40 (L1210 [2]) | Rm [3] | C50 [4] | C50 [5] | C50 [6]
C[n+]1cccc(-c2ccc(NC(=O)c3ccc(C(=O)Nc4ccc(-c5ccc(-c6ccc(-c7ccc[n+](C)c7)cc6)cc5)cc4)cc3)cc2)c1.Cc1ccc(S(=O)(=O)[O-])cc1.Cc1ccc(S(=O)(=O)[O-])cc1 | 2.1 | 0.29 µM | 65 mg/kg | 17.9 mg/kg | -0.75 | 0.16 µM | 0.22 µM | 0.37 µM
C[n+]1ccc(Nc2ccc(NC(=O)c3ccc(Nc4cc[n+](C)c5c(N)cccc45)cc3)cc2)cc1.[I-].[I-] | 2.48 | 0.85 µM | 60 mg/kg | 0.9 mg/kg | -0.1 | 0.056 µM | 0.2 µM | 1.43 µM
C[n+]1cccc(NC(=O)c2ccc(NC(=O)C34CCC(C(=O)Nc5ccc(C(=O)Nc6ccc[n+](C)c6)cc5)(CC3)CC4)cc2)c1.Cc1ccc(S(=O)(=O)[O-])cc1.Cc1ccc(S(=O)(=O)[O-])cc1 | 2 | 6.8 µM | 24 mg/kg | 4.3 mg/kg | 0.31 | 1.6 µM | 5.3 µM | 11 µM
C[n+]1cccc(NC(=O)c2ccc(NC(=O)c3ccc(C(=O)Nc4ccc(C(=O)Nc5ccc[n+](C)c5)cc4)cc3)cc2)c1 |  | 0.83 µM and 0.42 µM |  |  |  | 0.13 µM | 0.79 µM and 0.41 µM | 1.6 µM and 0.91 µM
CC[n+]1ccc(Nc2ccc(NC(=O)c3ccc(Nc4cc[n+](CC)c5cc(N)ccc45)cc3N)cc2)cc1.[Br-].[Br-] | 2.39 | 0.52 µM | 11 mg/kg | 1.4 mg/kg | 0.07 | 0.054 µM | 0.13 µM | 1.11 µM
C[n+]1cccc(NC(=O)c2ccc(NC(=O)c3ccc(C(=O)Nc4ccc[n+](C)c4)cc3)cc2)c1.Cc1ccc(S(=O)(=O)[O-])cc1.Cc1ccc(S(=O)(=O)[O-])cc1 | <1.4 | 11.2 µM | 4 mg/kg |  | -0.11 | 0.325 µM | 7.7 µM | 22 µM
C[n+]1ccc(Nc2ccc(NC(=O)c3ccc(Nc4cc[n+](C)c5ccc(N)cc45)cc3)cc2)cc1.[Br-].[Br-] | 2.35 | 0.66 µM | 12 mg/kg | 1.2 mg/kg | 0.07 | 0.048 µM | 0.09 µM | 1.05 µM
Cc1cc(C(=O)Nc2ccc[n+](C)c2)ccc1NC(=O)c1ccc(C(=O)Nc2ccc(C(=O)Nc3ccc[n+](C)c3)cc2C)cc1.Cc1ccc(S(=O)(=O)[O-])cc1.Cc1ccc(S(=O)(=O)[O-])cc1 | 1.79 | 11.7 µM | 40 mg/kg | 27 mg/kg | 0.12 | 0.35 µM | 6 µM | 16.7 µM
C[n+]1cccc(NC(=O)c2ccc(C(=O)Nc3ccc[n+](C)c3)cc2)c1.Cc1ccc(S(=O)(=O)[O-])cc1.Cc1ccc(S(=O)(=O)[O-])cc1 | <1.4 | 61 µM | 5 mg/kg |  | 0 | 3.8 µM | 63 µM | 80 µM
C[n+]1ccccc1Nc1ccc(NC(=O)c2ccc(C(=O)Nc3ccc(Nc4cccc[n+]4C)cc3)cc2)cc1.Cc1ccc(S(=O)(=O)[O-])cc1.Cc1ccc(S(=O)(=O)[O-])cc1 | <1.4 | 5.6 µM | 16 mg/kg |  | 0.13 | 0.15 µM | 2.8 µM | 8.8 µM
C[n+]1cccc(NC(=O)c2ccc(NC(=O)c3ccc(C(=O)Nc4ccc(Nc5cc[n+](C)c6ccc(N)cc56)cc4)cc3)cc2)c1.Cc1ccc(S(=O)(=O)[O-])cc1.Cc1ccc(S(=O)(=O)[O-])cc1 | 1.95 | 0.31 µM | 140 mg/kg | 22.1 mg/kg | -0.47 |  | 0.22 µM | 0.34 µM
C[n+]1ccc(Nc2ccc(C(=O)Nc3ccc(Nc4cc[n+](C)c5ccc(N)cc45)c(N)c3)cc2)cc1.Cc1ccc(S(=O)(=O)[O-])cc1.Cc1ccc(S(=O)(=O)[O-])cc1 | 2.03 | 1.58 µM | 9 mg/kg | 1.1 mg/kg | -0.15 |  | 0.25 µM | 2.68 µM
C[n+]1cccc(NC(=O)c2ccc(NC(=O)c3ccc(C(=O)Nc4ccc(NC(=N)NC(=N)N)cc4)cc3)cc2)c1.I.[I-] | 2.2 | 1.14 µM | 11 mg/kg | 1 mg/kg | -0.4 |  | 0.77 µM | 1.71 µM
COc1ccc2c(c1)c(Nc1ccc(C(=O)Nc3ccc(Nc4cc[n+](C)cc4)cc3)cc1)cc[n+]2C.Cc1ccc(S(=O)(=O)[O-])cc1.Cc1ccc(S(=O)(=O)[O-])cc1 | 2.2 | 0.68 µM | 50 mg/kg | 1.5 mg/kg | 0.46 |  | 0.19 µM | 1.15 µM
COc1cc(N)cc2c(Nc3ccc(NC(=O)c4ccc(Nc5cc[n+](C)cc5)cc4)cc3)cc[n+](C)c12.Cc1ccc(S(=O)(=O)[O-])cc1.Cc1ccc(S(=O)(=O)[O-])cc1 | 2.33 | 0.31 µM | 56 mg/kg | 1.1 mg/kg | 0.07 |  | 0.1 µM | 0.61 µM
COc1cccc2c(Nc3ccc(C(=O)Nc4ccc(Nc5cc[n+](C)cc5)cc4)cc3)cc[n+](C)c12.[Br-].[Br-] | 2.14 | 0.76 µM | 6 mg/kg | 0.3 mg/kg | 0.3 |  | 0.16 µM | 1.62 µM
C[n+]1ccc(Nc2ccc(NC(=O)/C=C/c3ccc(C(=O)Nc4ccc(Nc5cc[n+](C)cc5)c(N)c4)cc3)cc2N)cc1.Cc1ccc(S(=O)(=O)[O-])cc1.Cc1ccc(S(=O)(=O)[O-])cc1 | 2.3 | 1.5 µM | 6.7 mg/kg | 1.4 mg/kg | 0.04 |  | 0.08 µM | 1.5 µM
CC[n+]1ccc(Nc2ccc(NC(=O)c3ccc(Nc4cc(C)[n+](CC)c5ccc(N)cc45)cc3N)cc2)cc1.[I-].[I-] | 1.86 | 0.5 µM | 20 mg/kg | 7.2 mg/kg | 0.34 |  | 0.31 µM | 1.17 µM
C[n+]1cccc(NC(=O)c2ccc(NC(=O)c3ccc(C(=O)Nc4ccc(-c5ccc(-c6ccc(-c7ccc[n+](C)c7)cc6)cc5)cc4)cc3)cc2)c1.Cc1ccc(S(=O)(=O)[O-])cc1.Cc1ccc(S(=O)(=O)[O-])cc1 | 2.25 | 0.63 µM | 14 mg/kg | 2.5 mg/kg | -0.4 |  | 0.5 µM | 0.84 µM
CCCC[n+]1cccc(C(=O)Nc2ccc(NC(=O)c3ccc(C(=O)Nc4ccc5c(ccc[n+]5CCCC)c4)cc3)cc2)c1.Cc1ccc(S(=O)(=O)[O-])cc1.Cc1ccc(S(=O)(=O)[O-])cc1 | 1.72 | 2.5 µM | 19 mg/kg | 12 mg/kg | 0.65 |  | 2.1 µM | 4.2 µM
